Results published in ChEMBL document CHEMBL1145379 (J Med Chem, 2007).

Experiments:
Plasma [1] = assay: Anticoagulant potency in human plasma assessed as concentration for doubling of prothrombin time; type: functional
Coagulation factor X [2] = biological target: Coagulation factor X (Homo sapiens, UniProt P00742); assay: Inhibition of human F10a; details: read-out: Ki app
Prothrombin = Prothrombin (Homo sapiens, UniProt P00734); assay: Inhibition of human F2a; details: read-out: Ki app
[3] = Clearance in Beagle dog at 1 mg/kg, iv; type: ADME, organism-based, Canis lupus familiaris; design: dose 1 mg/kg, route intravenous; details: in vivo
[4] = Volume of distribution at steady state in Beagle dog at 1 mg/kg, iv; type: ADME, organism-based, Canis lupus familiaris; design: dose 1 mg/kg, route intravenous; details: in vivo, read-out: Vss
[5] = Half life in Beagle dog at 1 mg/kg, iv; type: ADME, organism-based, Canis lupus familiaris; design: dose 1 mg/kg, route intravenous; details: in vivo
[6] = Cmax in Beagle dog at 10 mg/kg, po; type: ADME, organism-based, Canis lupus familiaris; design: dose 10 mg/kg, route oral; details: in vivo
[7] = Bioavailability in Beagle dog at 10 mg/kg, po normalized to 1 mg/kg, iv; type: ADME, organism-based, Canis lupus familiaris; details: in vivo
Plasma [8] = assay: Anticoagulant potency in dog plasma assessed as concentration for doubling of prothrombin time; type: functional, Canis lupus familiaris
Plasma [9] = assay: Anticoagulant potency in rat plasma assessed as concentration for doubling of prothrombin time; type: functional
[10] = Inhibition of dog F10a; design: species or system Canis lupus familiaris
Coagulation factor X [11] = biological target: Coagulation factor X (Rattus norvegicus, UniProt Q63207); assay: Inhibition of rat F10a
Canis familiaris [12] = assay: Ex vivo anticoagulant potency in dog assessed as prolongation of prothrombin time at 10 mg/kg, po after 1 hr; type: functional, Canis lupus familiaris
Canis familiaris [13] = assay: Ex vivo anticoagulant potency in dog assessed as prolongation of prothrombin time at 10 mg/kg, po after 2 hrs; type: functional, Canis lupus familiaris
Canis familiaris [14] = assay: Ex vivo anticoagulant potency in dog assessed as prolongation of prothrombin time at 10 mg/kg, po after 6 hrs; type: functional, Canis lupus familiaris
Trypsin = Trypsin (Homo sapiens, UniProt P07477+P07478+P35030); assay: Inhibition of human trypsin; type: protein assay
[15] = biological target: Tissue-type plasminogen activator (Homo sapiens, UniProt P00750); assay: Inhibition of human tPA
Plasma kallikrein = Plasma kallikrein (Homo sapiens, UniProt P03952); assay: Inhibition of human kallikrein
Coagulation factor XI = Coagulation factor XI (Homo sapiens, UniProt P03951); assay: Inhibition of human F11a
[16] = biological target: Urokinase-type plasminogen activator (Homo sapiens, UniProt P00749); assay: Inhibition of human urokinase
Plasminogen = Plasminogen (Homo sapiens, UniProt P00747); assay: Inhibition of human plasmin
[17] = Inhibition of human chymotrypsin
Cathepsin G = biological target: T1, Cathepsin G (Homo sapiens, UniProt P08311); assay: Inhibition of human cathepsin G
T1 sequence (P08311 whole entry): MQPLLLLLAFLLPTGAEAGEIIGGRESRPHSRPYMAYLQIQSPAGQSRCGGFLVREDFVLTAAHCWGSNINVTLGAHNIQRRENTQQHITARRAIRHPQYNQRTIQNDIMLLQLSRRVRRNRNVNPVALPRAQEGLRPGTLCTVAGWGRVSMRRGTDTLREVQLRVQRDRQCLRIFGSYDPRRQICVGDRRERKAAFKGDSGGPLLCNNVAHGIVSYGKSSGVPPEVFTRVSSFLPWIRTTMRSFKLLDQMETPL

Neutrophil elastase = biological target: T2, Neutrophil elastase (Homo sapiens, UniProt P08246); assay: Inhibition of human neutrophil elastase
T2 sequence (P08246 whole entry): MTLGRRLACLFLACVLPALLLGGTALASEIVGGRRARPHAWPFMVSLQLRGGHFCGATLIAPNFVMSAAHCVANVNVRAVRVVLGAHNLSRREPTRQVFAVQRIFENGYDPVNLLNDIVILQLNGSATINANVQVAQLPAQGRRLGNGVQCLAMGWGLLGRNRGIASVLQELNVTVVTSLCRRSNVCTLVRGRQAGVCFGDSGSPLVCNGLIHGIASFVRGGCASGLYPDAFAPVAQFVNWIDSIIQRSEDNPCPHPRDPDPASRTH

Rattus norvegicus = assay: Inhibition of thrombosis in iv dosed Wistar rat vena cava stasis model; type: functional, organism-based
[18] = Distribution coefficient, log D at pH 7.4; type: physicochemical; details: octanol/water

Coagulation factor X (Homo sapiens, UniProt P00742), sequence (P00742 41-179 limits assumed): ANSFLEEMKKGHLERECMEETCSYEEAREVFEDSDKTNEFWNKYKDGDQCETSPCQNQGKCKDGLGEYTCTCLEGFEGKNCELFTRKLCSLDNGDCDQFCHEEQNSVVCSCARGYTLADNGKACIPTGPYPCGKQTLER
Coagulation factor X (Homo sapiens, UniProt P00742), sequence (P00742 235-488 limits assumed): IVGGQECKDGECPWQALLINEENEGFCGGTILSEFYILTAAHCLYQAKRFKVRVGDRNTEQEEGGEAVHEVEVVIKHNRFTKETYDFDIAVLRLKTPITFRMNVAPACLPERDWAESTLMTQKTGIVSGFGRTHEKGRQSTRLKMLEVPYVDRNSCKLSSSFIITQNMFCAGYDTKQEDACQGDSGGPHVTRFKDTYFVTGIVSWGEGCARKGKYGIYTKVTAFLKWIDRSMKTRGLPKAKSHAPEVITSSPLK
Plasminogen, sequence (P00747 97-580 limits assumed): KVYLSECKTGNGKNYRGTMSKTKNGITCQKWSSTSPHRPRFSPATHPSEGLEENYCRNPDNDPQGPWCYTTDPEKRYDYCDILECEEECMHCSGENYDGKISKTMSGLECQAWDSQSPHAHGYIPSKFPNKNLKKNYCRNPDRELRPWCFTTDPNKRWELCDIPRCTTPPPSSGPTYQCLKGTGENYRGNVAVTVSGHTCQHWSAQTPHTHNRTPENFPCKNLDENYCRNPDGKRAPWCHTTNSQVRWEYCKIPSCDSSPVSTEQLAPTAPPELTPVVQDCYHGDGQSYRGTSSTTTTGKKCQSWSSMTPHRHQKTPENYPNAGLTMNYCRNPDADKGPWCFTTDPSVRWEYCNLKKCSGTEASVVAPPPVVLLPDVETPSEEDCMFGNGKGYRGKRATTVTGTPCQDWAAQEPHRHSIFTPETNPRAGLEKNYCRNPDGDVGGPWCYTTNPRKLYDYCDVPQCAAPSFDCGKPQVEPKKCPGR
Plasminogen, sequence (P00747 581-810 limits assumed): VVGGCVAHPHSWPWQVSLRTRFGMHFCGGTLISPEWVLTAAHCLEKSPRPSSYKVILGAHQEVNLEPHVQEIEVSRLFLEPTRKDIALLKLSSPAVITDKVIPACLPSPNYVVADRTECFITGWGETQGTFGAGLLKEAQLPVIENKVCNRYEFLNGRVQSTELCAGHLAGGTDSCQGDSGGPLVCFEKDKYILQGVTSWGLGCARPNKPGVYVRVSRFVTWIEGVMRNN
Coagulation factor XI, sequence (P03951 19-387 limits assumed): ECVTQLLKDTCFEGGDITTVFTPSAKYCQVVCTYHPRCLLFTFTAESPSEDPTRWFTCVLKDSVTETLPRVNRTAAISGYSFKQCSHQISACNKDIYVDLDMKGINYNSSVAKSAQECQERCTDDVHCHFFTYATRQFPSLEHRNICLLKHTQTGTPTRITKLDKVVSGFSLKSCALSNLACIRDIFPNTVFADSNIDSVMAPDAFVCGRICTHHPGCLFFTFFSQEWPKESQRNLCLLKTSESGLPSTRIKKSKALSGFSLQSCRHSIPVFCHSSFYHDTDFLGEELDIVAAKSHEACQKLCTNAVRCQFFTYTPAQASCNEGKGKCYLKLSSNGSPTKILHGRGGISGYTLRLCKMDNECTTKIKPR
Coagulation factor XI, sequence (P03951 388-625 limits assumed): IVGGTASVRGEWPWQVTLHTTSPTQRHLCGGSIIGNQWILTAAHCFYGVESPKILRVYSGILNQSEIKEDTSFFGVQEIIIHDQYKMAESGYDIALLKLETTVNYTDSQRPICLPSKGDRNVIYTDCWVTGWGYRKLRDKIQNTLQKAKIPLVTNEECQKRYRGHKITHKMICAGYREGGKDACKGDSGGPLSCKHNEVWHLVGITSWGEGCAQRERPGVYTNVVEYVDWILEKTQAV
Plasma kallikrein, sequence (P03952 20-390 limits assumed): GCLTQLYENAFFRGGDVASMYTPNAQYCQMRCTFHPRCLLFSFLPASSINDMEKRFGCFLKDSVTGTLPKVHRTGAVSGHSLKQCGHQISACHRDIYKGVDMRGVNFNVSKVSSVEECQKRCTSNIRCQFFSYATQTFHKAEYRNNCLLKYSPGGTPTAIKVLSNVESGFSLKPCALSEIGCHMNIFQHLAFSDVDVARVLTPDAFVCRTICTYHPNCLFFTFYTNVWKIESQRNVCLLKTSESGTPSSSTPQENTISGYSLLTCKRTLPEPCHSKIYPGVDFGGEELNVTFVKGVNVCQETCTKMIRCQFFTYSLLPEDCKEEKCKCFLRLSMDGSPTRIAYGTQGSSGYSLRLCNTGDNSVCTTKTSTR
Plasma kallikrein, sequence (P03952 391-638 limits assumed): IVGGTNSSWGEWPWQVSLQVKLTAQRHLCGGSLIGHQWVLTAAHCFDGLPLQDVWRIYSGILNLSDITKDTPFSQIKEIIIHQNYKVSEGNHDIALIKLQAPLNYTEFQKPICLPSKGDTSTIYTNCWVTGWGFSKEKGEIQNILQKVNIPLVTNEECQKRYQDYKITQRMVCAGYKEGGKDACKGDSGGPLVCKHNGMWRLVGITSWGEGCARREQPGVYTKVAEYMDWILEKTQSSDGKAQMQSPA
Coagulation factor X (Rattus norvegicus, UniProt Q63207), sequence (Q63207 41-180 limits assumed): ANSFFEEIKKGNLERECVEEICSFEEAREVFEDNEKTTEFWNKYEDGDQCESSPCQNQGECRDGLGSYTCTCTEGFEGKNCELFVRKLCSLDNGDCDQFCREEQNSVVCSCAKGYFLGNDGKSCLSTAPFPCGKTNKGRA
Coagulation factor X (Rattus norvegicus, UniProt Q63207), sequence (Q63207 232-482 limits assumed): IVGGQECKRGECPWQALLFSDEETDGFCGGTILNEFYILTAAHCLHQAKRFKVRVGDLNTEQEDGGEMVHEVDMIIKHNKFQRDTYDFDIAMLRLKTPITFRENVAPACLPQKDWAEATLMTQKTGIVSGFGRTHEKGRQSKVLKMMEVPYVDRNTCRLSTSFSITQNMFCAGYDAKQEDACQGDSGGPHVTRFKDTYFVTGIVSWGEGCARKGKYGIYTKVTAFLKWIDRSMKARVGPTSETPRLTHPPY
Tissue-type plasminogen activator, sequence (P00750 whole entry): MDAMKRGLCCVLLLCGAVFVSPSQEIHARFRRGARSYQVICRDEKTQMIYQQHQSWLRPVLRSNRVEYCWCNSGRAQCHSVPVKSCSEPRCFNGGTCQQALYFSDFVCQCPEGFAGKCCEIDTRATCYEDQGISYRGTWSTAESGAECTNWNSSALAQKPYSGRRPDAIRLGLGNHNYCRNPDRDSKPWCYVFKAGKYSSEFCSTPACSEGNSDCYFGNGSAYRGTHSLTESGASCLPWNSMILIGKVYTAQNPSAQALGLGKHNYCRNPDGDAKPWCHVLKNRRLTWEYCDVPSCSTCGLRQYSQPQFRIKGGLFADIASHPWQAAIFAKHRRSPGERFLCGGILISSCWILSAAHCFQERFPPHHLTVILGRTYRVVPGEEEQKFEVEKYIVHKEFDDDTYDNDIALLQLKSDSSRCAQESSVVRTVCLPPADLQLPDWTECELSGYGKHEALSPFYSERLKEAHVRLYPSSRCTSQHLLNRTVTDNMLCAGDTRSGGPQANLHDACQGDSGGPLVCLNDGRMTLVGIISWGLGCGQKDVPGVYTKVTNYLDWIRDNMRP

In the case of `COc1cc(Cl)cc(C(=O)Nc2ccc(Cl)cn2)c1NC(=O)c1scc(CN(C)CCO)c1Cl`, the Activity (Plasma [1]) is reported as 1.6 µM, the Ki (Coagulation factor X [2]) is reported as 0.24 nM and the Ki (Prothrombin) is reported as 1400 nM. For the same molecule, the clearance [3] was 1.62 L/h/kg, the Vd [4] was 4.4 L/kg and the half-life [5] was 2.1 h. For the same molecule, the Cmax [6] was 1.2 µg/mL and the bioavailability [7] was > 100%.

With `COc1cc(Cl)cc(C(=O)Nc2ccc(Cl)cn2)c1NC(=O)c1scc(CN(C)C2=NCCO2)c1Cl` the Activity (Plasma [1]) was 0.36 µM, the Ki (Coagulation factor X [2]) was 0.007 nM and the Ki (Prothrombin) was 90 nM. The clearance [3] was 0.348 L/h/kg, the Vd [4] was 1.6 L/kg and the half-life [5] was 3.2 h. It also gave a Cmax [6] of 1.9 µg/mL, a bioavailability [7] of 56% and an Activity (Plasma [8]) of 0.35 µM. It also gave an Activity (Plasma [9]) of 93 µM, a Ki [10] of 0.15 nM and a Ki (Coagulation factor X [11]) of 0.29 nM. It also gave a Fold change (Canis familiaris [12]) of 3.2, a Fold change (Canis familiaris [13]) of 5 and a Fold change (Canis familiaris [14]) of 4. The Ki (Trypsin) was > 10000 nM, the Ki [15] was > 5000 nM and the Ki (Plasma kallikrein) was 37 nM. The Ki (Coagulation factor XI) was > 10000 nM, the Ki [16] was > 5000 nM and the Ki (Plasminogen) was > 10000 nM. For the same molecule, the Ki [17] was > 10000 nM, the Ki (Cathepsin G) was > 10000 nM and the Ki (Neutrophil elastase) was > 10000 nM.

In the case of `CNc1nccn1Cc1csc(C(=O)Nc2c(OC)cc(Cl)cc2C(=O)Nc2ccc(Cl)cn2)c1Cl`, the Activity (Plasma [1]) is reported as 1.2 µM, the Ki (Prothrombin) is reported as 990 nM and the clearance [3] is reported as 0.264 L/h/kg. The Vd [4] was 1 L/kg, the half-life [5] was 3.4 h and the Cmax [6] was 3.7 µg/mL. The bioavailability [7] was 98%, the Activity (Plasma [8]) was 4.2 µM and the Activity (Plasma [9]) was 2.56 µM. For the same molecule, the Ki [10] was 0.31 nM, the Ki (Coagulation factor X [11]) was 0.06 nM and the Ki (Trypsin) was > 5000 nM. The Ki [15] was > 5000 nM, the Ki (Plasma kallikrein) was 45 nM and the Ki (Coagulation factor XI) was > 5000 nM. The Ki [16] was > 5000 nM, the Ki (Plasminogen) was > 5000 nM and the Ki [17] was > 5000 nM. For the same molecule, the Ki (Cathepsin G) was > 5000 nM, the Ki (Neutrophil elastase) was > 5000 nM and the Activity (Rattus norvegicus) was “Dose-dependent effect”.

In the case of `CN1CCN(Cc2csc(C(=O)Nc3ccc(Cl)cc3C(=O)Nc3ccc(Cl)cc3)c2Cl)CC1`, the Activity (Plasma [1]) is reported as 12 µM, the logD [18] is reported as 2.96 and the Ki (Coagulation factor X [2]) is reported as 0.76 nM. The Ki (Prothrombin) was 840 nM.

`CNCc1csc(C(=O)Nc2c(OC)cc(Cl)cc2C(=O)Nc2ccc(Cl)cn2)c1Cl` gave an Activity (Plasma [1]) of 1.6 µM, a Ki (Coagulation factor X [2]) of 0.21 nM and a Ki (Prothrombin) of 3700 nM. For the same molecule, the clearance [3] was 0.096 L/h/kg, the Vd [4] was 1.4 L/kg and the half-life [5] was 10.5 h. The Cmax [6] was 5.1 µg/mL, the bioavailability [7] was 75% and the Activity (Plasma [8]) was 4.35 µM. For the same molecule, the Activity (Plasma [9]) was 7.3 µM, the Ki [10] was 1.7 nM and the Ki (Coagulation factor X [11]) was 2.5 nM. For the same molecule, the Ki (Trypsin) was > 10000 nM, the Ki [15] was > 5000 nM and the Ki (Plasma kallikrein) was 1000 nM. For the same molecule, the Ki (Coagulation factor XI) was > 10000 nM, the Ki [16] was > 5000 nM and the Ki (Plasminogen) was > 10000 nM. For the same molecule, the Ki [17] was > 10000 nM, the Ki (Cathepsin G) was > 10000 nM and the Ki (Neutrophil elastase) was 10000 nM. The Activity (Rattus norvegicus) was “Dose-dependent effect”.

`CCN(C)Cc1csc(C(=O)Nc2c(OC)cc(Cl)cc2C(=O)Nc2ccc(Cl)cn2)c1Cl` showed an Activity (Plasma [1]) of 1.4 µM, a Ki (Coagulation factor X [2]) of 0.22 nM and a Ki (Prothrombin) of 1700 nM.

In the case of `COc1cc(Cl)cc(C(=O)Nc2ccc(Cl)cn2)c1NC(=O)c1scc(CN2CCSC2=N)c1Cl`, the Activity (Plasma [1]) is reported as 1.4 µM, the Ki (Coagulation factor X [2]) is reported as ≤ 0.01 nM and the Ki (Prothrombin) is reported as 2600 nM.

`CCN(Cc1csc(C(=O)Nc2c(OC)cc(Cl)cc2C(=O)Nc2ccc(Cl)cn2)c1Cl)C1=NC(C)CO1` (centres undefined) gave an Activity (Plasma [1]) of 3.8 µM, a Ki (Coagulation factor X [2]) of 0.031 nM and a Ki (Prothrombin) of 580 nM.

For `COc1cc(Cl)cc(C(=O)Nc2ccc(Cl)cn2)c1NC(=O)c1scc(Cn2ccnc2NC(C)C)c1Cl`, the Activity (Plasma [1]) was 2.3 µM, the Ki (Coagulation factor X [2]) was 0.008 nM and the Ki (Prothrombin) was 1200 nM.

Work on `COc1cc(Cl)cc(C(=O)Nc2ccc(Cl)cn2)c1NC(=O)c1scc(CN2CCN(C)CC2)c1Cl` yielded an Activity (Plasma [1]) of 1.6 µM, a logD [18] of 2.75 and a Ki (Coagulation factor X [2]) of 0.16 nM. The Ki (Prothrombin) was 1500 nM.

With `CN1CCN(Cc2csc(C(=O)Nc3ccc(Cl)cc3C(=O)Nc3ccc(Cl)cn3)c2Cl)CC1` the Activity (Plasma [1]) was 6.9 µM, the logD [18] was 3.11 and the Ki (Coagulation factor X [2]) was 0.36 nM. For the same molecule, the Ki (Prothrombin) was 680 nM.
